Data reported in patent US10898548B2, “Modulators of protein tyrosine phosphatase and uses thereof” (LEUVAS THERAPEUTICS, priority 2015, dated 2021).

What was measured:
[1] = test system: human primary monocytes; assay: static adhesion of fMLP-stimulated monocytes to fibrinogen; type: cell-based; set-up: fMLP-triggered static adhesion to fibrinogen: unit not given here; settings: CTRL 100; for fMLP-induced adhesion to fibrinogen: 40 μM P1 or P1-TKIP, 100 μM AG490, 200 μM WHI-P154, 1 hour, 50 nM fMLP 60 sec; for fMLP-triggered static adhesion to fibrinogen: monocytes
Method: We investigated the functional effect of PTPRG activation on integrin activation and mediated adhesion by chemoattractants in human primary monocytes and PMNs in a static and flow adhesion assays. Briefly, human primary monocytes or polymorphonuclear cells were suspended at 5×10^6/ml in standard adhesion buffer. Adhesion assays were performed on 18-well glass slides coated with 1 mg/ml human fibrinogen or with 1 μg/ml human ICAM-1 in PBS; 20 μl of cell suspension were added to the coated wells and stimulated for 1 min at 37° C. with 5 μl of fMLP, 0.05 μM final concentration. After rapid washing, adherent cells were fixed in ice-cold 1.5% glutaraldehyde in PBS, and still images of adherent cells in 0.2 mm^2 fields were acquired al 20× phase contrast magnification, NA 0.40, with a charge-coupled device camera (ICD-42B; Ikegami) connected to an inverted microscope (IX50; Olympus). Image acquisition and computer-assisted enumeration of adherent cells were performed with ImageJ (National Institute of Health). […]
(§1) To evaluate whether JAK2 mediates chemoattractant-induced adhesion of human monocytes to beta-2 integrin substrates human monocytes were treated control buffer or P1 or with the three JAK inhibitors. Briefly, human monocytes were treated with buffer (CTRL=control), or 40 μM P1 or P1-TKIP peptides, 100 μM AG490 or 200 μM WHI-P154 for 1 hour at 37° C. and stimulated with 50 nM fMLP for 60 sec.; data are mean and standard deviation (SD) of 6 experiments in triplicate.

[2] = test system: human primary monocytes; assay: static adhesion of fMLP-stimulated monocytes to ICAM-1; type: cell-based; settings: CTRL 100; for fMLP-induced adhesion to ICAM-1: 40 μM P1 or P1-TKIP, 100 μM AG490, 200 μM WHI-P154, 1 hour, 50 nM fMLP 60 sec; for fMLP-triggered static adhesion to ICAM-1: monocytes
Method: We investigated the functional effect of PTPRG activation on integrin activation and mediated adhesion by chemoattractants in human primary monocytes and PMNs in a static and flow adhesion assays. Briefly, human primary monocytes or polymorphonuclear cells were suspended at 5×10^6/ml in standard adhesion buffer. Adhesion assays were performed on 18-well glass slides coated with 1 mg/ml human fibrinogen or with 1 μg/ml human ICAM-1 in PBS; 20 μl of cell suspension were added to the coated wells and stimulated for 1 min at 37° C. with 5 μl of fMLP, 0.05 μM final concentration. After rapid washing, adherent cells were fixed in ice-cold 1.5% glutaraldehyde in PBS, and still images of adherent cells in 0.2 mm^2 fields were acquired al 20× phase contrast magnification, NA 0.40, with a charge-coupled device camera (ICD-42B; Ikegami) connected to an inverted microscope (IX50; Olympus). Image acquisition and computer-assisted enumeration of adherent cells were performed with ImageJ (National Institute of Health).
We then investigated the functional effect of TAT-ICD on integrin activation and mediated adhesion by chemoattractants. Static adhesion assays were performed as described in Example 2. […] Data are mean number of adherent cells in 5 experiments in triplicate.
as §1
Human primary monocytes were isolated from buffy coats from healthy donors and pre-incubated for 30 minutes at room temperature with our without 0.075 micromolar PTPX. Standard adhesion assays on ICAM-1 coated glass slides. Cell suspensions were added to the coated wells for 1 minute, stimulated for 1 minute at 37° C. with […] fMLP. Non-adherent cells were washed away and adherent cells were fixed in ice-cold 1.5% glutaraldehyde in PBS and adherent cells were counted using computer assisted automatic quantification. Data are from a representative experiment and are the mean and standard deviation of 24 measurements per condition (Table 35).

[3] = test system: LFA-1; assay: LFA-1 high affinity state detection with 327C mAb; type: cell-based, human; settings: CTRL 100; for LFA-1 high affinity state, percentages of fold increases over the control: 40 μM P1 or P1-TKIP, 100 μM AG490, 200 μM WHI-P154, 1 hour, 50 nM fMLP 60 sec; for LFA-1 high affinity state, mean fluorescence intensity relative to the fMLP-stimulated control: monocytes, 50 nM fMLP 1 min, concentration not given; for LFA-1 high affinity state, percentages of fold-increase over control: 50 μM TAT peptides or 0.5 μM TAT-ICD, 1 hour, 50 nM fMLP 60 seconds
Method: The ability of P1-WD to inhibit triggering of LFA-1 to a high-affinity state was assessed using a specific reporter monoclonal antibody 327C, which detects the fully extended LFA-1 conformational epitope corresponding to heterodimer high affinity state. Briefly, freshly isolated human monocytes were suspended in standard adhesion buffer at 2×10^6/ml were stimulated under stirring at 37° C. for 1 min with 50 nM fMLP in the presence of 10 µg/ml 327C mAb. After rapid washing, the cells were stained with FITC-conjugated secondary antibody and analyzed by cytofluorimetric quantification (Table 4). Data are mean fluorescence intensity measured by flow cytometry relative to the fMLP-stimulated control (CTRL) cells.
The ability of TAT-ICD to trigger the high affinity state of LFA-1 was tested as described in Example 2, Table 4 and the results are in Table 8. Human monocytes were treated with buffer (CTRL), 50 μM TAT peptides, or 0.5 μM TAT-ICD for 1 hour at 37° C. and stimulated with 50 nM fMLP for 60 seconds. Data are the percentages of fold-increase over control; mean values of 6 experiments
Briefly, LFA-1 high affinity state detection. Human monocytes were treated with buffer (CTRL=control), 40 μM P1 or P1-TKIP peptides, 100 μM AG490 or 200 μM WHI-P154 for 1 hour at 37° C. and stimulated with 50 nM fMLP for 60 sec. LFA-1 high affinity state conformer was detected by cytofluorimetric analysis with 327C antibody. Shown are percentages of fold increases over the control; mean values of 5 experiments.

[4] = control peptide, concentration not given

Molecule | fMLP-induced adhesion to fibrinogen [1] | fMLP-induced adhesion to ICAM-1 [2] | LFA-1 high affinity state, percentages of fold increases over the control [3] | LFA-1 high affinity state, mean fluorescence intensity relative to the fMLP-stimulated control [3] | fMLP-triggered static adhesion to fibrinogen ([1]; 0.5 μM) | fMLP-triggered static adhesion to fibrinogen ([1]; 1 μM) | fMLP-triggered static adhesion to ICAM-1 ([2]; 0.5 μM) | fMLP-triggered static adhesion to ICAM-1 ([2]; 1 μM) | LFA-1 high affinity state, percentages of fold-increase over control [3] | further results
N#C/C(=C/c1ccc(O)c(O)c1)C(=O)NCc1ccccc1 [AG490] | 32.8% | 23.5% | 66% | – | – | – | – | – | – | –
P1: Penetratin delivery peptide, 16 aa RQIKIWFQNRRMKWKK (SEQ ID 4), control [reference compound] | 110% | 101% | 90% | 91 | – | – | – | – | – | fMLP-triggered static adhesion to fibrinogen [1, 4]: 94; fMLP-triggered static adhesion to ICAM-1 [2, 4]: 102
P1-WD: fusion Trojan peptide SEQ ID 3: Penetratin, glycine, PTPRG wedge domain aa 831-856; RQIKIWFQNRRMKWKKGKQFVKHIGELYSNNQHGFSEDFEEVQ (listed as Homo sapiens) | – | – | – | 22 | – | – | – | – | – | fMLP-triggered static adhesion to fibrinogen ([1]; P1-WD 10 micromolar): 41; fMLP-triggered static adhesion to fibrinogen ([1]; P1-WD 25 micromolar): 18; fMLP-triggered static adhesion to fibrinogen ([1]; P1-WD 50 micromolar): 16; fMLP-triggered static adhesion to ICAM-1 ([2]; P1-WD 10 micromolar): 78; fMLP-triggered static adhesion to ICAM-1 ([2]; P1-WD 25 micromolar): 40; fMLP-triggered static adhesion to ICAM-1 ([2]; P1-WD 50 micromolar): 19
COc1cc2ncnc(Nc3ccc(O)c(Br)c3)c2cc1OC [WHI-P154] | 18% | 6.4% | 58% | – | – | – | – | – | – | –
TAT (GRKKRRQRRRPPQ; listed as Homo sapiens) [reference compound] | – | – | – | – | 100 | 98 | 100 | 110 | 85.3% | –
TAT-ICD: fusion recombinant protein SEQ ID 5: PTPRG intracellular domain aa 797-1445 fused to 13 aa TAT sequence | – | – | – | – | 20.1 | 14.0 | 14 | 10 | 24.3% | fMLP-triggered static adhesion to fibrinogen ([1]; 0.01 μM): 45.4; fMLP-triggered static adhesion to fibrinogen ([1]; 0.05 μM): 35.5; fMLP-triggered static adhesion to fibrinogen ([1]; 0.10 μM): 27.9; fMLP-triggered static adhesion to ICAM-1 ([2]; 0.01 μM): 48; fMLP-triggered static adhesion to ICAM-1 ([2]; 0.05 μM): 36; fMLP-triggered static adhesion to ICAM-1 ([2]; 0.10 μM): 30
